Reference: publication PMC10913730, “Antimicrobial activity of a natural compound and analogs against multi-drug-resistant Gram-positive pathogens” (Microbiology Spectrum, 2024)
Where two headings read alike, the source gives them in different places.

Experiments:
MRSA isolates = assay: MIC/MBC, CLSI broth microdilution, MRSA isolates; format: cell-based, Staphylococcus aureus
[1] = test system: human bronchial epithelial (16HBE) cells; assay: alamarBlue cell viability assay, 16HBE; settings: 24-hour incubation, non-linear regression
[2] = test system: human dermal fibroblast (HDF) cells; assay: alamarBlue cell viability assay, HDF; settings: HDFs, 24-hour incubation, non-linear regression
[3] = Aqueous solubility of compounds reconstituted at 10 mg/mL in water; settings: 10 mg/mL in distilled deionized water
[4] = pH and Ka of 10-g/L aqueous solutions (pH meter); format: physicochemical; settings: 10-g/L solution in distilled, deionized water
[5] = test system: erythrocytes (sheep blood); assay: Hemolytic activity against sheep erythrocytes
[6] = Staphylococcus aureus, MRSA, pH 5.5, MRSA 0606, pH 5.5
[7] = Staphylococcus aureus, MRSA, pH 5.5, MRSA 0608, pH 5.5
[8] = Staphylococcus aureus, MRSA, pH 5.5, MRSA 0634, pH 5.5
[9] = Staphylococcus aureus, MRSA, pH 5.5, MRSA 0641, pH 5.5
[10] = Staphylococcus aureus, MRSA, pH 5.5, MRSA 0646, pH 5.5
[11] = Staphylococcus aureus, MRSA, pH 5.5, TCH 1516, pH 5.5
[12] = Staphylococcus aureus, MRSA, pH 6.5, MRSA 0606, pH 6.5
[13] = Staphylococcus aureus, MRSA, pH 6.5, MRSA 0608, pH 6.5
[14] = Staphylococcus aureus, MRSA, pH 6.5, MRSA 0634, pH 6.5
[15] = Staphylococcus aureus, MRSA, pH 6.5, MRSA 0641, pH 6.5
[16] = Staphylococcus aureus, MRSA, pH 6.5, MRSA 0646, pH 6.5
[17] = Staphylococcus aureus, MRSA, pH 6.5, TCH 1516, pH 6.5
[18] = Staphylococcus aureus, MRSA, pH 7.4, MRSA 0606, pH 7.4
[19] = Staphylococcus aureus, MRSA, pH 7.4, MRSA 0608, pH 7.4
[20] = Staphylococcus aureus, MRSA, pH 7.4, MRSA 0634, pH 7.4
[21] = Staphylococcus aureus, MRSA, pH 7.4, MRSA 0641, pH 7.4
[22] = Staphylococcus aureus, MRSA, pH 7.4, MRSA 0646, pH 7.4
[23] = Staphylococcus aureus, MRSA, pH 7.4, TCH 1516, pH 7.4

[Na+].[Na+].[O-]c1c(Cl)cc(Cl)cc1-c1cc(Cl)cc(Cl)c1[O-] [C59Na]
MIC90 (MRSA isolates; Staphylococcus aureus, MRSA, 39 evaluated MRSA isolates, CLSI broth microdilution): 4 µg/mL
MBC (MRSA isolates; [6]): 0.25 µg/mL
MIC (MRSA isolates; [6]): 0.25 µg/mL
MBC (MRSA isolates; [7]): 0.25 µg/mL
MIC (MRSA isolates; [7]): 0.25 µg/mL
MBC (MRSA isolates; [8]): 0.25 µg/mL
MIC (MRSA isolates; [8]): 0.25 µg/mL
MBC (MRSA isolates; [9]): 0.25 µg/mL
MIC (MRSA isolates; [9]): 0.25 µg/mL
MBC (MRSA isolates; [10]): 0.25 µg/mL
MIC (MRSA isolates; [10]): 0.25 µg/mL
MBC (MRSA isolates; [11]): 0.25 µg/mL
MIC (MRSA isolates; [11]): 0.25 µg/mL
MBC (MRSA isolates; Staphylococcus aureus, MRSA, pH 5.5, read-out: Average MBC, average of six MRSA isolates, pH 5.5): 0.25 µg/mL
MIC (MRSA isolates; Staphylococcus aureus, MRSA, pH 5.5, read-out: Average MIC, average of six MRSA isolates, pH 5.5): 0.25 µg/mL
MBC (MRSA isolates; [12]): 1 µg/mL
MIC (MRSA isolates; [12]): 0.5 µg/mL
MBC (MRSA isolates; [13]): 1 µg/mL
MIC (MRSA isolates; [13]): 1 µg/mL
MBC (MRSA isolates; [14]): 1 µg/mL
MIC (MRSA isolates; [14]): 1 µg/mL
MBC (MRSA isolates; [15]): 1 µg/mL
MIC (MRSA isolates; [15]): 0.5 µg/mL
MBC (MRSA isolates; [16]): 1 µg/mL
MIC (MRSA isolates; [16]): 0.5 µg/mL
MBC (MRSA isolates; [17]): 2 µg/mL
MIC (MRSA isolates; [17]): 1 µg/mL
MBC (MRSA isolates; Staphylococcus aureus, MRSA, pH 6.5, read-out: Average MBC, average of six MRSA isolates, pH 6.5): 1.2 µg/mL
MIC (MRSA isolates; Staphylococcus aureus, MRSA, pH 6.5, read-out: Average MIC, average of six MRSA isolates, pH 6.5): 0.75 µg/mL
MBC (MRSA isolates; [18]): 2 µg/mL
MIC (MRSA isolates; [18]): 2 µg/mL
MBC (MRSA isolates; [19]): 4 µg/mL
MIC (MRSA isolates; [19]): 2 µg/mL
MBC (MRSA isolates; [20]): 2 µg/mL
MIC (MRSA isolates; [20]): 2 µg/mL
MBC (MRSA isolates; [21]): 4 µg/mL
MIC (MRSA isolates; [21]): 2 µg/mL
MBC (MRSA isolates; [22]): 4 µg/mL
MIC (MRSA isolates; [22]): 1 µg/mL
MBC (MRSA isolates; [23]): 2 µg/mL
MIC (MRSA isolates; [23]): 2 µg/mL
MBC (MRSA isolates; Staphylococcus aureus, MRSA, pH 7.4, read-out: Average MBC, average of six MRSA isolates, pH 7.4): 3 µg/mL
MIC (MRSA isolates; Staphylococcus aureus, MRSA, pH 7.4, read-out: Average MIC, average of six MRSA isolates, pH 7.4): 1.8 µg/mL
MBC (MRSA isolates; Staphylococcus aureus, MRSA, read-out: MBC90, 39 evaluated MRSA isolates, CLSI broth microdilution): 12 µg/mL
change of MIC and MBC with the reduction in pH (MRSA isolates; six MRSA isolates, pH lowered to 5.5): decreased
LD50 [1]: 30.0 µg/mL
LD50 [2]: 57.5 µg/mL
aqueous solubility [3]: moderate aqueous solubility
acid dissociation constant (Ka) [4]: 1.54 × 10^−16
pH of solution ([4]; room temperature): 8.69
concentrations at which erythrocytes were not lysed ([5]; 1% sheep blood, 1-hour incubation): up to 24 µg/mL
LD50 relative to MIC90 ([5]; higher than MIC90, stated in the hemolysis discussion, cell type not named): 10 fold
